Values joined by “and” are separate entries in the source; they are usually repeats but may differ in a detail not shown here. Equal entries are not always repeated.
Experiments:
[1] = tested on: human PBMC; assay: LPS concentration optimization, cytokine release in human PBMC (Phase 1); format: cell-based; details: for IL-2 Mean Concentration in supernatant / IFN-g Mean Concentration in supernatant: Donors 1-3; for IL-2 Mean Concentration in supernatant: LLOQ = 2.387 pg/mL; for IFN-g Mean Concentration in supernatant: LLOQ = 2.872 pg/mL; for IL-1β Mean Concentration in supernatant / IL-6 Mean Concentration in supernatant / TNF-α Mean Concentration in supernatant: individual Donors 1-3
[2] = tested on: human PBMC; assay: LPS stimulated cytokine secretion in human PBMC pretreated with compounds (Phase 2); format: cell-based; details: LPS alone, 1 ng/mL, 8-hour stimulation; for IL-2 concentration in supernatant: LLOQ = 1.698 pg/mL; for TNF-α concentration in supernatant: LLOQ = 2.018 pg/mL; for IL-1β concentration in supernatant: LLOQ = 2.299 pg/mL; for IFN-g concentration in supernatant: LLOQ = 2.792 pg/mL; for IL-6 concentration in supernatant: LLOQ = 0.831
From the text: Results are represented as fold-change relative to LPS treatment alone for each cytokine calculated by means from 3 separate donors.
RPMI medium alone, RPMI supplemented with 0.2% DMSO (to mimic treatment conditions) or LPS stimulation alone were used as controls.
Except for the two negative control conditions, all 3 donors responded to all experimental conditions tested with the secretion of TNF-α, IL-1β, and IL-6 albeit with a high degree of variability.

## Lipopolysaccharide [LPS]
[1]; 1 ng/mL LPS, after 8 hours
  Secretion of IL-1b, IL-6 and TNF-α: robust secretion
  Secretion of IL-2 or IFN-g: No secretion
[1]; LPS 1 ng/mL, 8-hour
  IL-2 Mean Concentration in supernatant: <LLOQ
  IFN-g Mean Concentration in supernatant: <LLOQ
  IL-1β Mean Concentration in supernatant: 403.43 pg/mL and 575.75 pg/mL and 1756.56 pg/mL (2×)
  IL-6 Mean Concentration in supernatant: 64.83 pg/mL and 659.3 pg/mL and 1103.64 pg/mL (2×)
  TNF-α Mean Concentration in supernatant: 670.9 pg/mL and 817.83 pg/mL and 1149.23 pg/mL (2×)
[1]; LPS 1 ng/mL, 24-hour
  IL-2 Mean Concentration in supernatant: <LLOQ
  IFN-g Mean Concentration in supernatant: <LLOQ
  IL-1β Mean Concentration in supernatant: 923.42 pg/mL and 1164.43 pg/mL and 2396.79 pg/mL
  IL-6 Mean Concentration in supernatant: 1284.85 pg/mL and 1269.72 pg/mL and 1897.32 pg/mL
  TNF-α Mean Concentration in supernatant: 1768.29 pg/mL and 2299.94 pg/mL and 2108.58 pg/mL
[1]; LPS 10 ng/mL, 8-hour
  IL-2 Mean Concentration in supernatant: <LLOQ
  IFN-g Mean Concentration in supernatant: <LLOQ
  IL-1β Mean Concentration in supernatant: 404.91 pg/mL and 879.72 pg/mL and 1768.06 pg/mL
  IL-6 Mean Concentration in supernatant: 192.2 pg/mL and 830.13 pg/mL and 1084.03 pg/mL
  TNF-α Mean Concentration in supernatant: 912.13 pg/mL and 955.81 pg/mL and 1113.95 pg/mL
[1]; LPS 10 ng/mL, 24-hour
  IL-2 Mean Concentration in supernatant: <LLOQ
  IFN-g Mean Concentration in supernatant: <LLOQ
  IL-1β Mean Concentration in supernatant: 986.68 pg/mL and 1038.39 pg/mL and 2391.98 pg/mL
  IL-6 Mean Concentration in supernatant: 1393.01 pg/mL and 1167.49 pg/mL and 2016.76 pg/mL
  TNF-α Mean Concentration in supernatant: 2316.87 pg/mL and 1605.58 pg/mL and 2139.91 pg/mL
[1]; LPS 50 ng/mL, 8-hour
  IL-2 Mean Concentration in supernatant: <LLOQ
  IFN-g Mean Concentration in supernatant: <LLOQ
  IL-1β Mean Concentration in supernatant: 327.69 pg/mL and 1002.11 pg/mL and 1751.4 pg/mL
  IL-6 Mean Concentration in supernatant: 75.24 pg/mL and 880.71 pg/mL and 1096.09 pg/mL
  TNF-α Mean Concentration in supernatant: 511.42 pg/mL and 1143.84 pg/mL and 1051.41 pg/mL
[1]; LPS 50 ng/mL, 24-hour
  IL-2 Mean Concentration in supernatant: <LLOQ
  IFN-g Mean Concentration in supernatant: <LLOQ
  IL-1β Mean Concentration in supernatant: 899.92 pg/mL and 1170.32 pg/mL and 2216.54 pg/mL
  IL-6 Mean Concentration in supernatant: 1317.99 pg/mL and 1333.24 pg/mL and 1966.58 pg/mL
  TNF-α Mean Concentration in supernatant: 1680.24 pg/mL and 1378.24 pg/mL and 1954.44 pg/mL
[1]; LPS 100 ng/mL, 8-hour
  IL-2 Mean Concentration in supernatant: <LLOQ
  IFN-g Mean Concentration in supernatant: <LLOQ
  IL-1β Mean Concentration in supernatant: 298.82 pg/mL and 873.62 pg/mL and 1222.41 pg/mL
  IL-6 Mean Concentration in supernatant: 37.62 pg/mL and 820.5 pg/mL and 817.27 pg/mL
  TNF-α Mean Concentration in supernatant: 386.41 pg/mL and 1313.93 pg/mL and 868.83 pg/mL
[1]; LPS 100 ng/mL, 24-hour
  IL-2 Mean Concentration in supernatant: <LLOQ
  IFN-g Mean Concentration in supernatant: <LLOQ
  IL-1β Mean Concentration in supernatant: 913.95 pg/mL and 1182.07 pg/mL and 2282.4 pg/mL
  IL-6 Mean Concentration in supernatant: 1390.38 pg/mL and 1243.06 pg/mL and 2083.25 pg/mL
  TNF-α Mean Concentration in supernatant: 1792.89 pg/mL and 1332.65 pg/mL and 2343.08 pg/mL
[1]; LPS 1000 ng/mL, 8-hour
  IL-2 Mean Concentration in supernatant: <LLOQ
  IFN-g Mean Concentration in supernatant: <LLOQ
  IL-1β Mean Concentration in supernatant: 1008.83 pg/mL and 1979.93 pg/mL and 441.01 pg/mL
  IL-6 Mean Concentration in supernatant: 895.76 pg/mL and 1251.62 pg/mL and 166.25 pg/mL
  TNF-α Mean Concentration in supernatant: 1276.06 pg/mL and 1481.27 pg/mL and 498.68 pg/mL
[1]; LPS 1000 ng/mL, 24-hour
  IFN-g Mean Concentration in supernatant: <LLOQ
  IL-1β Mean Concentration in supernatant: 1145.77 pg/mL and 2192.5 pg/mL and 799.96 pg/mL
  IL-6 Mean Concentration in supernatant: 1519.68 pg/mL and 2426.8 pg/mL and 1363.37 pg/mL
  TNF-α Mean Concentration in supernatant: 2286.74 pg/mL and 3069.72 pg/mL and 1675.83 pg/mL
[1]; LPS ≥1 ng/mL, 8 and 24 hours, all donors
  Production of TNF-α, IL-1β, and IL-6: robust production
[2]; Donor 1
  IL-2 concentration in supernatant: <LLOQ
  TNF-α concentration in supernatant: 1417.82 pg/mL
  IL-1β concentration in supernatant: 2362.87 pg/mL
  IFN-g concentration in supernatant: <LLOQ
  IL-6 concentration in supernatant: 863.49 pg/mL
[2]; Donor 2
  IL-2 concentration in supernatant: <LLOQ
  TNF-α concentration in supernatant: 1375.72 pg/mL
  IL-1β concentration in supernatant: 2485.92 pg/mL
  IFN-g concentration in supernatant: <LLOQ
  IL-6 concentration in supernatant: 760.26 pg/mL
[2]; Donor 3
  IL-2 concentration in supernatant: <LLOQ
  TNF-α concentration in supernatant: 4449.11 pg/mL
  IL-1β concentration in supernatant: 3881.34 pg/mL
  IFN-g concentration in supernatant: <LLOQ
  IL-6 concentration in supernatant: 760.26 pg/mL

— patent US12569509B2, “Method and composition for preventing and treating viral infections” (priority 2017, dated 2026)
